According to patent US9273058B2 (BRISTOL-MYERS SQUIBB COMPANY, priority 2013, dated 2016):
Where two headings read alike, the source gives them in different places.

Tests used:
[1] = biological target: CK1ε (Homo sapiens, UniProt P49674); assay: CK1ε kinase assay (Caliper LabChip electrophoretic separation of fluoresceinated peptide substrate and product); assay type: biochemical; settings: 200 pM CK1ε, 50 μM ATP, 1.5 μM peptide, 22 hours at room temperature
Outline: (§1)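 Each reaction was incubated 22 hours at room temperature and terminated with EDTA. Read-out was microfluidic electrophoretic separation of fluoresceinated substrate and phospho-product.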

[2] = biological target: CK1δ (Homo sapiens, UniProt P48730); assay: CK1δ kinase assay (Caliper LabChip electrophoretic separation of fluoresceinated peptide substrate and product); assay type: biochemical; settings: 200 pM CK1δ, 50 μM ATP, 1.5 μM peptide, 22 hours at room temperature
Chain of CK1δ (P48730 whole entry): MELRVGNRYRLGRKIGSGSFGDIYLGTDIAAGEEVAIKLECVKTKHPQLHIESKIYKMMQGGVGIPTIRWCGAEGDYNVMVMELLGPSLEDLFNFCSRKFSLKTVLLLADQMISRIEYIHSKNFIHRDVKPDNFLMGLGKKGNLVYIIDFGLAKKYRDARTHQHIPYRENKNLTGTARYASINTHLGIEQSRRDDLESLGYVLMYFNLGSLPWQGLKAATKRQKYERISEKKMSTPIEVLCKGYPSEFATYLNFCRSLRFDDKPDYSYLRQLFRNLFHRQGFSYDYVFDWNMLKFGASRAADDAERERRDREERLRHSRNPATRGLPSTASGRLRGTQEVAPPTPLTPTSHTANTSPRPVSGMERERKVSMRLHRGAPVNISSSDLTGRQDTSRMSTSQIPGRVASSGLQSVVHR
Outline: as §1

Chain of CK1ε (P49674 whole entry): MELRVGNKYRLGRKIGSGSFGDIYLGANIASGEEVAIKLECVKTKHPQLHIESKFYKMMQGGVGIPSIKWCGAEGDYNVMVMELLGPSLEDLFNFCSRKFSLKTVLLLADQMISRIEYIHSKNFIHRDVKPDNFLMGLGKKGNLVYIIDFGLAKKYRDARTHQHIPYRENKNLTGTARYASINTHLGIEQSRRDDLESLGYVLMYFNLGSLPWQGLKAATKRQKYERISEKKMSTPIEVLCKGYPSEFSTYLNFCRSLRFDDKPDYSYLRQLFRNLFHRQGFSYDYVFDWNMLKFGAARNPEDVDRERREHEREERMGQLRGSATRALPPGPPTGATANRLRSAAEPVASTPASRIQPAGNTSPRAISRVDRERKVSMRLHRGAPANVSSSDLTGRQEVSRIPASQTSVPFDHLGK

| Compound | IC50 ([1]; read-out: CK1ε IC50 range) | IC50 ([2]; read-out: CK1δ IC50 range) | IC50 ([1]; read-out: CK1ε) | IC50 ([2]; read-out: CK1δ) |
| --- | --- | --- | --- | --- |
| NC(=O)c1c(-c2cccc(F)c2)nn2c1CN(C(=O)NC1CCC(F)(F)CC1)CC2 [Compound 12, N^5-(4,4-Difluorocyclohexyl)-2-(3-fluorophenyl)-6,7-dihydropyrazolo[1,5-a]pyrazine-3,5(4H)-dicarboxamide] | 100 to 2000 nM | 10 to 100 nM | – | – |
| CC(C)(NC(=O)N1CCn2nc(-c3cccc(F)c3)c(C(N)=O)c2C1)C(F)(F)F [Compound 13, 2-(3-Fluorophenyl)-N^5-(1,1,1-trifluoro-2-methylpropan-2-yl)-6,7-dihydropyrazolo[1,5-a]pyrazine-3,5(4H)-dicarboxamide] | 10 to 100 nM | 0.01 to 10 nM | – | – |
| CC1(C)CC(NC(=O)N2CCn3nc(-c4cccc(F)c4)c(C(N)=O)c3C2)CC(C)(C)N1 [Compound 18, 2-(3-Fluorophenyl)-N^5-(2,2,6,6-tetramethylpiperidin-4-yl)-6,7-dihydropyrazolo[1,5-a]pyrazine-3,5(4H)-dicarboxamide] | 100 to 2000 nM | 10 to 100 nM | – | – |
| NC(=O)c1c(-c2cccc(F)c2)nn2c1CN(C(=O)NC1(C(F)(F)F)CC1)CC2 [Compound 20, 2-(3-Fluorophenyl)-N^5-(1-(trifluoromethyl)cyclopropyl)-6,7-dihydropyrazolo[1,5-a]pyrazine-3,5(4H)-dicarboxamide] | 10 to 100 nM | 10 to 100 nM | – | – |
| NC(=O)c1c(-c2cccc(F)c2)nn2c1CN(C(=O)Nc1cc(F)cc(F)c1F)CC2 [Compound 27, 2-(3-Fluorophenyl)-N^5-(2,3,5-trifluorophenyl)-6,7-dihydropyrazolo[1,5-a]pyrazine-3,5(4H)-dicarboxamide] | 10 to 100 nM | 10 to 100 nM | – | – |
| NC(=O)c1c(-c2cccc(F)c2)nn2c1CN(C(=O)Nc1cccc(F)c1F)CC2 [Compound 28, N^5-(2,3-Difluorophenyl)-2-(3-fluorophenyl)-6,7-dihydropyrazolo[1,5-a]pyrazine-3,5(4H)-dicarboxamide] | 10 to 100 nM | 10 to 100 nM | – | – |
| NC(=O)c1c(-c2cccc(F)c2)nn2c1CN(C(=O)Nc1ccc(Cl)cc1Cl)CC2 [Compound 43, N^5-(2,4-Dichlorophenyl)-2-(3-fluorophenyl)-6,7-dihydropyrazolo[1,5-a]pyrazine-3,5(4H)-dicarboxamide] | 10 to 100 nM | 10 to 100 nM | – | – |
| COc1ccc(CCNC(=O)N2CCn3nc(-c4cccc(F)c4)c(C(N)=O)c3C2)cc1 [Compound 47, 2-(3-Fluorophenyl)-N^5-(4-methoxyphenethyl)-6,7-dihydropyrazolo[1,5-a]pyrazine-3,5(4H)-dicarboxamide] | 100 to 2000 nM | 10 to 100 nM | – | – |
| NC(=O)c1c(-c2cccc(F)c2)nn2c1CN(C(=O)Nc1ccccc1C(F)(F)F)CC2 [Compound 48, 2-(3-Fluorophenyl)-N^5-(2-(trifluoromethyl)phenyl)-6,7-dihydropyrazolo[1,5-a]pyrazine-3,5(4H)-dicarboxamide] | 100 to 2000 nM | 10 to 100 nM | – | – |
| NC(=O)c1c(-c2cccc(F)c2)nn2c1CN(C(=O)Nc1cccc3ccccc13)CC2 [Compound 52, 2-(3-Fluorophenyl)-N^5-(naphthalen-1-yl)-6,7-dihydropyrazolo[1,5-a]pyrazine-3,5(4H)-dicarboxamide] | 10 to 100 nM | 10 to 100 nM | – | – |
| N#Cc1cccc(NC(=O)N2CCn3nc(-c4cccc(F)c4)c(C(N)=O)c3C2)c1 [Compound 54, N^5-(3-Cyanophenyl)-2-(3-fluorophenyl)-6,7-dihydropyrazolo[1,5-a]pyrazine-3,5(4H)-dicarboxamide] | 0.01 to 10 nM | 0.01 to 10 nM | – | – |
| N#Cc1ccc(NC(=O)N2CCn3nc(-c4cccc(F)c4)c(C(N)=O)c3C2)cc1 [Compound 61, N^5-(4-Cyanophenyl)-2-(3-fluorophenyl)-6,7-dihydropyrazolo[1,5-a]pyrazine-3,5(4H)-dicarboxamide] | 0.01 to 10 nM | 0.01 to 10 nM | 5 nM | 2.6 nM |
| NC(=O)c1c(-c2cccc(F)c2)nn2c1CN(C(=O)Nc1c(Cl)cccc1C(F)(F)F)CC2 [Compound 65, N^5-(2-Chloro-6-(trifluoromethyl)phenyl)-2-(3-fluorophenyl)-6,7-dihydropyrazolo[1,5-a]pyrazine-3,5(4H)-dicarboxamide] | 100 to 2000 nM | 100 to 2000 nM | – | – |
| NC(=O)c1c(-c2cccc(F)c2)nn2c1CN(C(=O)Nc1ccc(O)nc1)CC2 [Compound 88, 2-(3-Fluorophenyl)-N^5-(6-hydroxypyridin-3-yl)-6,7-dihydropyrazolo[1,5-a]pyrazine-3,5(4H)-dicarboxamide] | 10 to 100 nM | 10 to 100 nM | – | – |
| NC(=O)c1c(-c2cccc(F)c2)nn2c1CN(C(=O)Nc1cccnn1)CC2 [Compound 91, 2-(3-Fluorophenyl)-N^5-(pyridazin-3-yl)-6,7-dihydropyrazolo[1,5-a]pyrazine-3,5(4H)-dicarboxamide] | 100 to 2000 nM | 10 to 100 nM | – | – |
| NC(=O)c1c(-c2cccc(F)c2)nn2c1CN(C(=O)Nc1ccncc1)CC2 [Compound 92, 2-(3-Fluorophenyl)-N^5-(pyridin-4-yl)-6,7-dihydropyrazolo[1,5-a]pyrazine-3,5(4H)-dicarboxamide] | 100 to 2000 nM | 100 to 2000 nM | – | 446 nM |
| Cn1nccc1NC(=O)N1CCn2nc(-c3cccc(F)c3)c(C(N)=O)c2C1 [Compound 96, 2-(3-Fluorophenyl)-N^5-(1-methyl-1H-pyrazol-5-yl)-6,7-dihydropyrazolo[1,5-a]pyrazine-3,5(4H)-dicarboxamide] | 10 to 100 nM | 10 to 100 nM | – | – |

The next lines start with the values.

| IC50 ([1]; read-out: CK1ε IC50 range) | IC50 ([2]; read-out: CK1δ IC50 range) | IC50 ([1]; read-out: CK1ε) | IC50 ([2]; read-out: CK1δ) | Compound |
| --- | --- | --- | --- | --- |
| 10 to 100 nM | 10 to 100 nM | – | – | CC1(NC(=O)N2CCn3nc(-c4cccc(F)c4)c(C(N)=O)c3C2)CC1 [Compound 11, 2-(3-Fluorophenyl)-N^5-(1-methylcyclopropyl)-6,7-dihydropyrazolo[1,5-a]pyrazine-3,5(4H)-dicarboxamide] |
| 10 to 100 nM | 10 to 100 nM | – | – | NC(=O)c1c(-c2cccc(F)c2)nn2c1CN(C(=O)NCCC(F)(F)F)CC2 [Compound 14, 2-(3-Fluorophenyl)-N^5-(3,3,3-trifluoropropyl)-6,7-dihydropyrazolo[1,5-a]pyrazine-3,5(4H)-dicarboxamide] |
| 100 to 2000 nM | 10 to 100 nM | – | – | NC(=O)c1c(-c2cccc(F)c2)nn2c1CN(C(=O)NCC(F)(F)F)CC2 [Compound 15, 2-(3-Fluorophenyl)-N^5-(2,2,2-trifluoroethyl)-6,7-dihydropyrazolo[1,5-a]pyrazine-3,5(4H)-dicarboxamide] |
| 10 to 100 nM | 10 to 100 nM | – | – | NC(=O)c1c(-c2cccc(F)c2)nn2c1CN(C(=O)NC13CC(C1)C3)CC2 [Compound 24, N^5-(Bicyclo[1.1.1]pentan-1-yl)-2-(3-fluorophenyl)-6,7-dihydropyrazolo[1,5-a]pyrazine-3,5(4H)-dicarboxamide] |
| 10 to 100 nM | 10 to 100 nM | – | – | NC(=O)c1c(-c2cccc(F)c2)nn2c1CN(C(=O)Nc1cc(F)ccc1F)CC2 [Compound 26, N^5-(2,5-Difluorophenyl)-2-(3-fluorophenyl)-6,7-dihydropyrazolo[1,5-a]pyrazine-3,5(4H)-dicarboxamide] |
| 10 to 100 nM | 10 to 100 nM | – | – | NC(=O)c1c(-c2cccc(F)c2)nn2c1CN(C(=O)Nc1ccc(F)cc1F)CC2 [Compound 30, N^5-(2,4-Difluorophenyl)-2-(3-fluorophenyl)-6,7-dihydropyrazolo[1,5-a]pyrazine-3,5(4H)-dicarboxamide] |
| 10 to 100 nM | 10 to 100 nM | – | – | NC(=O)c1c(-c2cccc(F)c2)nn2c1CN(C(=O)Nc1ccc(F)cc1Cl)CC2 [Compound 32, N^5-(2-Chloro-4-fluorophenyl)-2-(3-fluorophenyl)-6,7-dihydropyrazolo[1,5-a]pyrazine-3,5(4H)-dicarboxamide] |
| 100 to 2000 nM | 10 to 100 nM | – | – | NC(=O)c1c(-c2cccc(F)c2)nn2c1CN(C(=O)Nc1c(F)cc(F)cc1F)CC2 [Compound 40, 2-(3-Fluorophenyl)-N^5-(2,4,6-trifluorophenyl)-6,7-dihydropyrazolo[1,5-a]pyrazine-3,5(4H)dicarboxamide] |
| 100 to 2000 nM | 10 to 100 nM | – | – | NC(=O)c1c(-c2cccc(F)c2)nn2c1CN(C(=O)NCCc1ccc(F)cc1)CC2 [Compound 42, N^5-(4-Fluorophenethyl)-2-(3-fluorophenyl)-6,7-dihydropyrazolo[1,5-a]pyrazine-3,5(4H)-dicarboxamide] |
| 100 to 2000 nM | 10 to 100 nM | – | – | NC(=O)c1c(-c2cccc(F)c2)nn2c1CN(C(=O)Nc1ccc(Cl)cc1C(F)(F)F)CC2 [Compound 57, N^5-(4-Chloro-2-(trifluoromethyl)phenyl)-2-(3-fluorophenyl)-6,7-dihydropyrazolo[1,5-a]pyrazine-3,5(4H)-dicarboxamide] |
| 10 to 100 nM | 10 to 100 nM | – | – | COc1cc(NC(=O)N2CCn3nc(-c4cccc(F)c4)c(C(N)=O)c3C2)ncn1 [Compound 75, 2-(3-Fluorophenyl)-N^5-(6-methoxypyrimidin-4-yl)-6,7-dihydropyrazolo[1,5-a]pyrazine-3,5(4H)-dicarboxamide] |
| 10 to 100 nM | 100 to 2000 nM | – | – | Cc1ccc(NC(=O)N2CCn3nc(-c4cccc(F)c4)c(C(N)=O)c3C2)nn1 [Compound 83, 2-(3-Fluorophenyl)-N^5-(6-methylpyridazin-3-yl)-6,7-dihydropyrazolo[1,5-a]pyrazine-3,5(4H)-dicarboxamide] |
| 0.01 to 10 nM | 0.01 to 10 nM | – | – | CS(=O)(=O)c1cccc(NC(=O)N2CCn3nc(-c4cccc(F)c4)c(C(N)=O)c3C2)c1 [Compound 93, 2-(3-Fluorophenyl)-N^5-(3-(methylsulfonyl)phenyl)-6,7-dihydropyrazolo[1,5-a]pyrazine-3,5(4H)-dicarboxamide] |
